On to `Oc1ccccc1-c1nc(-c2ccccc2O)n(Cc2cccnc2)n1`, for which the melting point is 174 to 176 °C.
Compound `[N-]=[N+]=NCc1cc(C(F)(F)F)cc(C(F)(F)F)c1` had a melting point of 30 to 32 °C.
`CC(C)(/C=C/c1ccc(C(=O)O)cc1)c1ccc2c(c1)C(C)(C)CCC2(C)C` showed a melting point of 219 to 220 °C.
The value for `CCCCn1c(=O)[nH]c(=O)c2c3n(nc21)CCN3` was 239 to 240 °C.
`N=C(Cc1ccccc1)Nc1ncccc1OCc1ccccc1Br` had a melting point of 158 to 169 °C.
Consider `COc1ccc2c(NCCN3CCOCC3)noc2c1`, for which the melting point is 85 to 86 °C.
The value for `CC(=O)c1cccc(-c2ccc3c(c2)C(C)(C)OC(=O)N3)c1` was 178 to 179 °C; that for `Cc1cc(SCc2cccc3nn(-c4ccc(C(F)(F)F)cc4)cc23)ccc1OC(C)(C)C(=O)O` was 125 to 127 °C.
The value for `Cc1oc(-c2ccccc2)nc1CCOc1ccc(CC(C(=O)O)C(=O)O)cc1` was 173 to 175 °C; that for `OC1CSC(Oc2ccc(-c3ccc(F)nc3)nc2F)C(O)C1O` (centres undefined) was 141 to 144 °C; that for `CCn1c(=O)n(OCc2ccccc2)c(=O)c2cc(F)c(N3CCCC3)nc21` was 189 to 190 °C.
`Cc1cc(Br)n2ccnc2c1` showed a melting point of 53 to 54 °C.
As to `O=C(Oc1ccc(-c2ccc(OC(=O)c3cc(O)c(Br)c(O)c3)cc2)cc1)c1ccc(O)c(O)c1`, the melting point lay within 252 to 254 °C.
The value for `COCCOc1ccc(CN(C(=O)C2CCCc3c(O)cccc32)c2ccc(C(C)C)cc2)cn1` (centres undefined) was 153 °C.
The result for `CS(=O)(=O)c1ccc(-c2oc(CO)cc(=O)c2Oc2ccc(F)cc2F)cc1` reads 205 °C; that for `COc1ccc2c(c1)c1c(n2CCc2noc(-c3ccccc3)n2)CCN(C)C1`, 77.5 to 79 °C; that for `CCCc1cc(C(=O)O)nn1C`, 120 to 122 °C.
`CC(C)OC(=O)c1cc(N2C(=O)C(C)C(C)N(C)C2=O)c(F)cc1Cl` (centres undefined) gave a melting point of 119 to 120 °C.
The result for `CCCCCCSCCSCCSc1nc2nc(C)cc(O)n2n1` reads 119 to 121 °C; that for `NC(=O)COc1ccccc1C(=O)Nc1ccc(C(=O)N2CCCC(=O)c3ccccc32)cc1`, 226 to 228 °C; that for `COc1ccc(C2(O)CCN(Cc3ccccc3)CC2)cc1OC`, 112 to 114 °C.
The result for `CN(C)c1nnc(-c2ccc3ncn(-c4ccc(OC(F)(F)F)cc4)c3c2)o1` reads 224 to 225 °C; that for `Cc1c(-c2ccc(F)cc2)c(-c2ccc(S(N)(=O)=O)cc2)c2n1CCC2`, 120 °C.
For the compound `CC(C)Oc1ccc(-c2nc3n(c2-c2ccncc2)CCC3)cc1`, the melting point lay in the range of 148 to 150 °C.
The result for `CC(=O)C(=C1NCCCS1)[N+](=O)[O-]` reads 110 to 113 °C; that for `NC(=O)[C@H]1CCCN2CC[C@@H]3c4cc(Cl)ccc4N[C@@H]3[C@H]12` (racemic), 270 °C; that for `O=C(O)c1cn(C2CC2)c2c(F)c(N3CCOC(CN4CCNCC4)C3)c(F)cc2c1=O` (centres undefined), 260 °C.
The value for `CN(C)C(=O)Oc1ccc2c(NCCN3CCOCC3)noc2c1` was 150 °C; that for `CC(COc1ccc(CC2SC(=O)NC2=O)cc1)NCC(O)CN(C)c1ccccc1` (centres undefined) was 115 to 125 °C.
As for `O=C(O)Cc1ccc(CCNC(=O)c2ccccc2)cc1`, the melting point is 157 to 158 °C.
The value for `CC(=O)c1c(O)cccc1OCC(O)COc1ccc(Cl)cc1` (centres undefined) was 112 to 114 °C.
The value for `C=C(OCC1(N2CCN(C(=O)OC(C)(C)C)CC2)Cc2ccccc2C1)c1cc(C)cc(C)c1` was 128 °C.
In turn, `COC(=O)c1c(Cl)cc(Cl)cc1NC(=O)CSc1ccccc1C(=O)O` had a melting point of 165 to 166 °C.
The value for `CS(=O)(=O)c1ccc(CN2CC3(COc4cc5c(cc43)OCO5)c3ccccc32)o1` (centres undefined) was 177 to 179 °C.
